# Counter-ions that a name gives are not always drawn. Like-named read-outs stand apart in the source and are kept apart here.
# What was measured:
# [1] = Solubility of Lenalidomide modifications: saturated solutions in three media, HPLC analysis; format: physicochemical
# Protocol: As the case for their visual appearance, also the solubility of those different Lenalidomide modifications is quite different.
# • Solubilities are determined by preparing saturated solutions in the three media, followed by HPLC-analysis.
# [2] = Particle size distribution (d90), Malvern Mastersizer 2000, wet dispersion in cyclohexane; format: physicochemical
# Protocol: The D90 value is defined such that 90% by volume of the particles have a particle size smaller than the d90 value and 10% by volume of the particles have a greater particle size greater than the d90 value.
# Sample solution. Place 50 mg of well mixed sample to a 100 mL beaker. Add 25 mL of cyclohexane. Using Pasteur pipette transfer small aliquots of sample slurry to the measuring cuvette until the concentration reading is good. The beaker is swirled efficiently before each pipetting.
# Measurement according to the operating instructions. Perform three successive determinations, from which calculate the mean value.
# [3] = 0.1M hydrochloric acid, pH 1, simulated gastric fluid, thermodynamic from solid, 0.1M HCl, pH 1.0, read-out: Solubility
# [4] = acetate buffer, pH 4.5, aqueous buffer, thermodynamic from solid, Acetate buffer, pH 4.5, read-out: Solubility
# [5] = phosphate buffer, pH 6.8, aqueous buffer, thermodynamic from solid, Phosphate buffer, pH 6.8, read-out: Solubility
# [6] = as prepared in reference example 1 (not milled)
"Solubility [1, 3]","Solubility [1, 4]","Solubility [1, 5]","PSD, d90 [2, 6]","PSD, d90 ([2]; example 2, after milling 15 min at 20 Hz, listed as Ammonium chloride cocrystal)","Solubility ([1]; 0.1M HCl, pH 1.0)","Solubility ([1]; Acetate buffer, pH 4.5)","Solubility ([1]; Phosphate buffer, pH 6.8)","PSD, d90 ([2]; example 2, after milling 15 min at 20 Hz)","PSD, d90 ([2]; example 2, after milling 15 min at 20 Hz, listed as Hydrochloride salt)",Solubility relative to base form B ([1]; 0.1M hydrochloric acid at pH1),Structure (SMILES)
6330 µg/mL,380 µg/mL,350 µg/mL,–,–,–,–,–,–,–,–,Nc1cccc2c1CN(C1CCC(=O)NC1=O)C2=O (stereo not shown) [DMSO solvate]
–,–,–,383 μm,31 μm,7760 µg/mL,420 µg/mL,360 µg/mL,–,–,–,Nc1cccc2c1CN(C1CCC(=O)NC1=O)C2=O (stereo not shown) [NH4Cl cocrystal]
–,–,–,219 μm,–,4760 µg/mL,430 µg/mL,390 µg/mL,35 μm,–,–,"Nc1cccc2c1CN(C1CCC(=O)NC1=O)C2=O (racemic) [Base form A, (RS)-3-(4-Amino-1-oxo 1,3-dihydro-2H-isoindol-2-yl)piperidine-2,6-dione]"
–,–,–,434 μm,–,9000 µg/mL,370 µg/mL,330 µg/mL,–,43 μm,more than 3 times,Nc1cccc2c1CN(C1CCC(=O)NC1=O)C2=O (stereo not shown) [HCl salt]
2740 µg/mL,330 µg/mL,330 µg/mL,–,–,–,–,–,–,–,–,"Nc1cccc2c1CN(C1CCC(=O)NC1=O)C2=O (racemic) [Base form B, (RS)-3-(4-Amino-1-oxo 1,3-dihydro-2H-isoindol-2-yl)piperidine-2,6-dione]"
